WO2009110655A1, “Novel beta substituted morita-baylis-hillman derivatives” (FOOD SCIENCE Co Ltd, priority 2008, dated 2009)

Assays:
[1] = test system: human esophageal cancer cell line HEC4; experiment: MTT assay, anticancer effect (cytotoxicity) of β-substituted MBH derivatives; format: cell-based
Human HeLa cell lines = details: "It is reported"; cited from earlier work
[2] = 2 mg compound in 80 μl DMSO, 1 μl per well, 24 h at 37 °C, undiluted (FIGs. 1 and 2)
[3] = diluted 20-fold, 24 h at 37 °C (FIG. 3)

Compound	oncolytic activity [1, 2]	viabilities of the cancer cells [1, 3]	also measured
CCCCCCCCCCCCC/C=C(/C(=O)OC)C(O[Si](CC)(CC)CC)C(C)=O (stereo not drawn) [SE-2, (E)-methyl-2-(l-triethylsiloxy-2-oxopropyl)hexadeca-2-enoate]	almost no oncolytic activity		
CCCCCCCCCCCCC/C=C(/C(=O)OC)C(O)C(C)=O (stereo not drawn) [SE-3, secokotomolide A]		about 50%	DNA damage (Human HeLa cell lines): apotositic DNA damage; induction of apoptosis (Human HeLa cell lines): significant induction of apoptosis
CCCCCCCCCCCCC/C=C(/C(=O)OC)C(O)c1ccccc1 (stereo not drawn) [SE-5, (E)-methyl-2-(hydroxy(phenyl)methyl)hexateca-2-enoate]		about 50%	activity (comparison of diluted samples) ([1]; diluted samples, 20-fold, compared with SE-3 (FIG. 3)): a little higher activity than SE-3
C=C(C)C(O[Si](CC)(CC)CC)/C(=C\CCCCCCCCCCCCC)C(=O)OC (stereo not drawn) [SE-I, (E)-methyl-2-(l-triethylsiloxy-2-methylaryl)hexadeca-2-enoate]	almost no oncolytic activity		
CCCCCCCCCCCC/C=C(\C(=O)OC)C(O)c1ccccc1 (stereo not drawn) [SE-Il, (Z)-methyl-2-(hydroxy(phenyl)methyl)pentadeca-2-enoate]	very high oncolytic activities		viabilities of the cancer cells [1, 2]: less than 20%
